# Experimental data: ChEMBL document CHEMBL4049384, “Synthesis and evaluation of an injectable everolimus prodrug” (Bioorg Med Chem Lett, 2017)
# pIC50: −log10 of the molar value.
# Tests used:
# [1] = tested on: Blood; assay: Prodrug conversion in Sprague-Dawley rat blood assessed as everolimus formation at 2 mg/kg, iv after 2 hrs by HPLC analysis; assay type: ADME, organism-based; details: in vivo
# [2] = tested on: OS-RC-2; assay: Antitumor activity against human OS-RC2 cells xenografted in nude mouse assessed as reduction in tumor volume at 1.5 mg/kg, iv administered three times a week measured on day 19 relative to control; assay type: functional
# [3] = tested on: Mus musculus; assay: Toxicity in nude mouse xenografted with human OS-RC2 cells assessed as body weight loss at 24 mg/kg, iv administered once weekly measured on day 8 (reference value: 8.5 %); assay type: organism-based; details: in vivo
# [4] = tested on: Mus musculus; assay: Toxicity in nude mouse xenografted with human OS-RC2 cells assessed as body weight loss at 24 mg/kg, iv administered once weekly measured on day 29 (reference value: 31.2 %); assay type: organism-based; details: in vivo
# [5] = tested on: OS-RC-2; assay: Antitumor activity against human OS-RC2 cells xenografted in nude mouse assessed as reduction in tumor volume at 24 mg/kg, iv administered once weekly measured on day 26 relative to control; assay type: functional
# [6] = tested on: Mus musculus; assay: Toxicity in nude mouse xenografted with human OS-RC2 cells assessed as body weight loss at 24 mg/kg, iv administered once weekly measured on day 22 (reference value: 23.1 %); assay type: organism-based; details: in vivo
# [7] = tested on: Mus musculus; assay: Toxicity in nude mouse xenografted with human OS-RC2 cells assessed as body weight loss at 24 mg/kg, iv administered once weekly measured on day 26 (reference value: 28.2 %); assay type: organism-based; details: in vivo
# [8] = tested on: Mus musculus; assay: Toxicity in nude mouse xenografted with human OS-RC-2 cells assessed as body weight loss at 24 mg/kg, iv administered once weekly measured after 32 days (reference value: 33%); assay type: organism-based; details: in vivo, 768 h
# [9] = tested on: Mus musculus; assay: Toxicity in nude mouse xenografted with human OS-RC2 cells assessed as body weight loss at 1.5 mg/kg administered three times a week intravenously and measured on Day 19 (reference value: 23.1 %); assay type: organism-based; details: in vivo, iv
# [10] = Prodrug conversion in phosphate buffered saline at pH 7.4 assessed as everolimus formation
# [11] = tested on: OS-RC-2; assay: Antitumor activity against human OS-RC2 cells xenografted in nude mouse assessed as reduction in tumor volume at 24 mg/kg, iv administered once weekly measured on day 32 relative to control; assay type: functional
# [12] = tested on: OS-RC-2; assay: Antitumor activity against human OS-RC2 cells xenografted in nude mouse assessed as reduction in tumor volume at 1.5 mg/kg, iv administered three times a week measured on day 8 relative to control; assay type: functional
# [13] = tested on: OS-RC-2; assay: Antitumor activity against human OS-RC2 cells xenografted in nude mouse assessed as tumor weight at 1.5 mg/kg, iv administered three times a week measured after 32 days (reference value: 0.68 +/- 0.06 g); assay type: functional
# [14] = tested on: Blood; assay: Prodrug conversion in Sprague-Dawley rat blood assessed as everolimus level at 2.724 mg/kg, iv at 1.5 hrs post dose by HPLC method; assay type: ADME, organism-based; details: in vivo
# [15] = tested on: Mus musculus; assay: Toxicity in nude mouse xenografted with human OS-RC-2 cells assessed as body weight loss at 1.5 mg/kg, iv administered three times a week measured after 32 days (reference value: 33%); assay type: organism-based; details: in vivo, 768 h
# [16] = tested on: OS-RC-2; assay: Antitumor activity against human OS-RC2 cells xenografted in nude mouse assessed as reduction in tumor volume at 1.5 mg/kg, iv administered three times a week measured on day 12 relative to control; assay type: functional
# [17] = tested on: Blood; assay: Prodrug conversion in Sprague-Dawley rat blood assessed as everolimus level at 2.724 mg/kg, iv at 2 hrs post dose by HPLC method; assay type: ADME, organism-based; details: in vivo
# [18] = tested on: DU-145; assay: Antiproliferative activity against human DU145 cells after 48 hrs by MTT assay; assay type: functional, cell-based; details: DU-145, 48 h
# [19] = tested on: Mus musculus; assay: Toxicity in nude mouse xenografted with human OS-RC-2 cells assessed as body weight at 24 mg/kg, iv administered once weekly measured on day 1 (reference value: 20.4 +/- 0.33 g); assay type: organism-based; details: in vivo
# [20] = AUC (0 to t) in Sprague-Dawley rat at 2.724 mg/kg, iv; assay type: ADME, organism-based; details: in vivo
# [21] = tested on: OS-RC-2; assay: Antitumor activity against human OS-RC2 cells xenografted in nude mouse assessed as reduction in tumor volume at 24 mg/kg, iv administered once weekly measured on day 12 relative to control; assay type: functional
# [22] = tested on: OS-RC-2; assay: Antitumor activity against human OS-RC2 cells xenografted in nude mouse assessed as tumor weight at 24 mg/kg, iv administered once weekly measured after 32 days (reference value: 0.68 +/- 0.06 g); assay type: functional
# [23] = tested on: Mus musculus; assay: Toxicity in nude mouse xenografted with human OS-RC2 cells assessed as body weight loss at 24 mg/kg, iv administered once weekly measured on day 15 (reference value: 20.2 %); assay type: organism-based; details: in vivo
# [24] = tested on: OS-RC-2; assay: Antitumor activity against human OS-RC2 cells xenografted in nude mouse assessed as reduction in tumor volume at 24 mg/kg, iv administered once weekly measured on day 8 relative to control; assay type: functional
# [25] = tested on: OS-RC-2; assay: Antitumor activity against human OS-RC2 cells xenografted in nude mouse assessed as tumor volume at 24 mg/kg, iv administered once weekly and measured on day 1 (reference value: 167.51 +/- 17.09 mm3); assay type: functional
# [26] = tested on: PC-3; assay: Antiproliferative activity against human PC3 cells after 48 hrs by MTT assay; assay type: functional, cell-based; details: PC-3, 48 h
# [27] = tested on: OS-RC-2; assay: Antitumor activity against human OS-RC2 cells xenografted in nude mouse assessed as tumor growth inhibition at 24 mg/kg, iv administered once weekly measured after 32 days relative to control; assay type: functional; details: OS-RC-2, iv, 768 h, read-out: TGI
# [28] = Cmax in Sprague-Dawley rat at 2.724 mg/kg, iv; assay type: ADME, organism-based; design: dose 2.724 mg/kg, route intravenous; details: in vivo
# [29] = tested on: Mus musculus; assay: Toxicity in nude mouse xenografted with human OS-RC-2 cells assessed as body weight loss at 24 mg/kg, iv administered once weekly measured on day 5 (reference value: 1.9%); assay type: organism-based; details: in vivo
# [30] = Tmax in Sprague-Dawley rat at 2.724 mg/kg, iv; assay type: ADME, organism-based; details: in vivo
# [31] = tested on: Blood; assay: Prodrug conversion in Sprague-Dawley rat blood assessed as everolimus level at 2.724 mg/kg, iv at 0.25 hrs post dose by HPLC method; assay type: ADME, organism-based; details: in vivo
# [32] = tested on: Mus musculus; assay: Toxicity in nude mouse xenografted with human OS-RC2 cells assessed as body weight loss at 1.5 mg/kg administered three times a week intravenously and measured on Day 22 (reference value: 23.1 %); assay type: organism-based; details: in vivo, iv
# [33] = tested on: Mus musculus; assay: Toxicity in nude mouse xenografted with human OS-RC2 cells assessed as body weight loss at 24 mg/kg, iv administered once weekly measured on day 19 (reference value: 23.1 %); assay type: organism-based; details: in vivo
# [34] = tested on: Mus musculus; assay: Toxicity in nude mouse xenografted with human OS-RC2 cells assessed as body weight loss at 1.5 mg/kg administered three times a week intravenously and measured on Day 5 (reference value: 1.9 %); assay type: organism-based; details: in vivo, iv
# [35] = tested on: OS-RC-2; assay: Antitumor activity against human OS-RC2 cells xenografted in nude mouse assessed as reduction in tumor volume at 24 mg/kg, iv administered once weekly measured on day 19 relative to control; assay type: functional
# [36] = tested on: OS-RC-2; assay: Antitumor activity against human OS-RC2 cells xenografted in nude mouse assessed as reduction in tumor volume at 1.5 mg/kg, iv administered three times a week measured on day 5 relative to control; assay type: functional
# [37] = tested on: Blood; assay: Prodrug conversion in Sprague-Dawley rat blood assessed as everolimus level at 2.724 mg/kg, iv at 24 hrs post dose by HPLC method; assay type: ADME, organism-based; details: in vivo
# [38] = AUC (0 to infinity) in Sprague-Dawley rat at 2.724 mg/kg, iv; assay type: ADME, organism-based; design: dose 2.724 mg/kg, route intravenous, time infinity; details: in vivo
smiles,measurement,setting,value
CO[C@H]1C[C@@H]2CC[C@@H](C)[C@@](O)(O2)C(=O)C(=O)N2CCCC[C@H]2C(=O)O[C@H]([C@H](C)C[C@@H]2CC[C@@H](OCCOC(=O)CSC[C@H](NC(=O)CC[C@H](N)C(=O)O)C(=O)NCC(=O)O)[C@H](OC)C2)CC(=O)[C@H](C)/C=C(\C)[C@@H](O)[C@@H](OC)C(=O)[C@H](C)C[C@H](C)\C=C/C=C/C=C/1C,Drug metabolism,[1],Metabolite_Detected
same,T/C,[2],0.57%
same,Activity,[3],5.3%
same,Activity,[4],10.5%
same,T/C,[5],0.55%
same,Activity,[6],10.2%
same,Activity,[7],10.2%
same,Activity,[8],10.7%
same,Activity,[9],11.5%
same,Drug metabolism,[10],Metabolite not detected
same,T/C,[11],0.53%
same,T/C,[12],0.57%
same,Activity,[13],0.29 g
same,Drug metabolism,[14],40.4142 ng/mL
same,Activity,[15],12.3%
same,T/C,[16],0.6%
same,Drug metabolism,[17],28.155 ng/mL
same,pIC50,[18],4.25
same,Activity,[19],21.28 g
same,AUC(0-t),[20],2490 ng·h/mL
same,T/C,[21],0.47%
same,Activity,[22],0.26 g
same,Activity,[23],8.9%
same,T/C,[24],0.41%
same,Activity,[25],167.06 mm3
same,pIC50,[26],4.59
same,inhibition in vivo at 24 mg/kg,[27],60.6%
same,Cmax,[28],8420 ng/mL
same,Activity,[29],6.2%
same,Tmax,[30],4.98 min
same,Drug metabolism,[31],1995.0467 ng/mL
same,Activity,[32],11.5%
same,Activity,[33],10.2%
same,Activity,[34],6.8%
same,T/C,[35],0.49%
same,T/C,[36],0.72%
same,Drug metabolism,[37],2.3295 ng/mL
same,AUC(0-inf),[38],2510 ng·h/mL
